# Experiments:
# [1] = Determination of lipid-water partition coefficient (n-octanol/PBS pH 7.4); assay type: physicochemical; settings: n-octanol / PBS 0.025 M; for logP: n-octanol/phosphate buffer solution (PBS)
# Experimental: A 2 mL centrifuge tube was added with 100 µL (10µCi) of a labeling solution, then added with 950 µL of n-octanol and 850 µL of phosphate buffer solution (PBS, 0.025 M, pH=7.4). The 2 mL centrifuge tube was subjected to vortex for 3 min (2,500 rpm) and standing until the reaction solution was layered, and then centrifuged at 9,000 rpm for 5 min. Three samples (each for 100 µL) were collected from each of the two phases, and placed in γ-counter for the determination of radioactive counting. The lipid-water partition coefficient (P) was calculated by Organic phase radioactive counting/ water phase radioactive counting, and was usually expressed as Log P. The log P values of the radioactive compounds provided in Examples 1-4 were shown in Table 3.
# [2] = test system: S180 tumor; assay: Biodistribution in tumor-bearing mice; assay type: in vivo; settings: for Blood / Bone / Heart / Kidney / Liver / Lung / Muscle / Small intestine / Spleen / Thyroid / Tumor / Tumor/blood ratio / Tumor/muscle ratio: i.v., mice bearing S180 tumor; for target/non-target ratio compared with 99mTc-CNPEDG / tumor uptake compared with 99mTc-CNPEDG / tumor/muscle, tumor/blood and tumor/lung ratio compared with p-substituted 99mTc complexes / Tumor/lung ratio: 120 min p.i.
# Experimental: The mice bearing S180 tumors were injected intravenously via the tail vein respectively with the solutions (0.1 mL, 370 kBq) containing the radioactive drugs of Examples 1-4. The mice bearing S180 tumors were sacrificed by decapitation at different time points (30 min, 120 min) after the injection (5 mice for each time point). After dissection, the heart, liver, lung, kidney, spleen, bone, muscle, small intestine, blood and tumors were harvested, and measured for radioactivity with the γ-counter. The biodistribution individual organs or tissues was expressed as the percentage of the injected dose per gram of organ or tissue (% ID/g).
# [3] = 120 min, mean ± SD, listed as 99mTc-4-CNPEDG
SMILES,"Blood ([2]; 30 min, n=5, mean ± SD) [% ID/g]","Bone ([2]; 30 min, n=5, mean ± SD) [% ID/g]","Heart ([2]; 30 min, n=5, mean ± SD) [% ID/g]","Kidney ([2]; 30 min, n=5, mean ± SD) [% ID/g]","Liver ([2]; 30 min, n=5, mean ± SD) [% ID/g]","Lung ([2]; 30 min, n=5, mean ± SD) [% ID/g]","Muscle ([2]; 30 min, n=5, mean ± SD) [% ID/g]","Small intestine ([2]; 30 min, n=5, mean ± SD) [% ID/g]","Spleen ([2]; 30 min, n=5, mean ± SD) [% ID/g]","Thyroid ([2]; 30 min, n=5, mean ± SD) [%ID/g]","Tumor ([2]; 30 min, n=5, mean ± SD) [% ID/g]","Tumor/blood ratio ([2]; 30 min, n=5, mean ± SD)","Blood ([2]; 120 min, mean ± SD) [% ID/g]","Kidney ([2]; 120 min, mean ± SD) [% ID/g]","Liver ([2]; 120 min, mean ± SD) [% ID/g]","Lung ([2]; 120 min, mean ± SD) [% ID/g]","Muscle ([2]; 120 min, mean ± SD) [% ID/g]","Tumor ([2]; 120 min, mean ± SD) [% ID/g]","Tumor/blood ratio ([2]; 120 min, mean ± SD)","Tumor/muscle ratio ([2]; 120 min, mean ± SD)",other results
O=C(NC1C(O)OC(CO)C(O)C1O)c1cccc(C[N+]#[C][99Tc+]([C]#[N+]Cc2cccc(C(=O)NC3C(O)OC(CO)C(O)C3O)c2)([C]#[N+]Cc2cccc(C(=O)NC3C(O)OC(CO)C(O)C3O)c2)([C]#[N+]Cc2cccc(C(=O)NC3C(O)OC(CO)C(O)C3O)c2)([C]#[N+]Cc2cccc(C(=O)NC3C(O)OC(CO)C(O)C3O)c2)[C]#[N+]Cc2cccc(C(=O)NC3C(O)OC(CO)C(O)C3O)c2)c1 (centres unmarked) [^99mTc-3-CNPEDG],2.82 ± 0.30,1.26 ± 0.23,1.18 ± 0.12,9.69 ± 3.48,1.30 ± 0.06,3.10 ± 0.22,0.82 ± 0.24,2.19 ± 0.69,0.86 ± 0.09,0.04 ± 0.01,2.72 ± 0.36,0.97 ± 0.07,0.22 ± 0.07,4.70 ± 0.81,0.68 ± 0.07,0.42 ± 0.09,0.16 ± 0.04,1.35 ± 0.20,6.40 ± 1.45,8.76 ± 1.14,"logP [1]: -3.39 ± 0.166; Tumor/muscle ratio ([2]; 30 min, n=5, mean ± SD): 3.49 ± 0.71; Bone ([2]; 120 min, mean ± SD): 0.30 ± 0.06 % ID/g; Heart ([2]; 120 min, mean ± SD): 0.23 ± 0.05 % ID/g; Small intestine ([2]; 120 min, mean ± SD): 0.43 ± 0.11 % ID/g; Spleen ([2]; 120 min, mean ± SD): 0.25 ± 0.06 % ID/g; Thyroid ([2]; 120 min, mean ± SD): 0.01 ± 0.00 %ID/g; target/non-target ratio compared with 99mTc-CNPEDG ([2]; in words): better target/non-target ratio; tumor uptake compared with 99mTc-CNPEDG ([2]; in words): lower tumor uptake; tumor/muscle, tumor/blood and tumor/lung ratio compared with p-substituted 99mTc complexes ([2]; in words): higher; Tumor/lung ratio ([2]; mean ± SD): 3.26 ± 0.37"
O=C(Cc1ccc(C[N+]#[C][99Tc+]([C]#[N+]Cc2ccc(CC(=O)NC3C(O)OC(CO)C(O)C3O)cc2)([C]#[N+]Cc2ccc(CC(=O)NC3C(O)OC(CO)C(O)C3O)cc2)([C]#[N+]Cc2ccc(CC(=O)NC3C(O)OC(CO)C(O)C3O)cc2)([C]#[N+]Cc2ccc(CC(=O)NC3C(O)OC(CO)C(O)C3O)cc2)[C]#[N+]Cc2ccc(CC(=O)NC3C(O)OC(CO)C(O)C3O)cc2)cc1)NC1C(O)OC(CO)C(O)C1O (centres unmarked) [^99mTc-4-CNMBDG],4.08 ± 0.57,3.05 ± 0.62,2.67 ± 0.41,10.18 ± 1.28,3.00 ± 0.55,5.89 ± 0.59,1.96 ± 0.50,4.04 ± 0.87,2.24 ± 0.38,0.07 ± 0.01,6.46 ± 1.86,1.57 ± 0.36,0.64 ± 0.22,7.37 ± 1.71,2.43 ± 0.49,1.31 ± 0.44,0.86 ± 0.15,6.22 ± 1.77,10.06 ± 1.54,7.14 ± 1.11,"logP [1]: -3.1 ± 0.036; Tumor/muscle ratio ([2]; 30 min, n=5, mean ± SD): 3.52 ± 1.35; Bone ([2]; 120 min, mean ± SD): 1.27 ± 0.35 % ID/g; Heart ([2]; 120 min, mean ± SD): 1.31 ± 0.18 % ID/g; Small intestine ([2]; 120 min, mean ± SD): 1.65 ± 0.43 % ID/g; Spleen ([2]; 120 min, mean ± SD): 1.28 ± 0.34 % ID/g; Thyroid ([2]; 120 min, mean ± SD): 0.03 ± 0.01 %ID/g; tumor uptake compared with 99mTc-CNPEDG ([2]; in words): higher tumor uptake; clearance in blood ([2]; compared with 99mTc-CNPEDG, in words): faster clearance in blood"
O=C(NC1C(O)OC(CO)C(O)C1O)c1ccc([N+]#[C][99Tc+]([C]#[N+]c2ccc(C(=O)NC3C(O)OC(CO)C(O)C3O)cc2)([C]#[N+]c2ccc(C(=O)NC3C(O)OC(CO)C(O)C3O)cc2)([C]#[N+]c2ccc(C(=O)NC3C(O)OC(CO)C(O)C3O)cc2)([C]#[N+]c2ccc(C(=O)NC3C(O)OC(CO)C(O)C3O)cc2)[C]#[N+]c2ccc(C(=O)NC3C(O)OC(CO)C(O)C3O)cc2)cc1 (centres unmarked) [^99mTc-4-CNBzDG],–,–,–,–,–,–,–,–,–,–,–,–,–,–,–,–,–,–,0.47 ± 0.02,2.34 ± 0.18,Tumor/lung ratio ([2]; mean ± SD): 0.49 ± 0.02
O=C(NC1C(O)OC(CO)C(O)C1O)c1ccc(CC[N+]#[C][99Tc+]([C]#[N+]CCc2ccc(C(=O)NC3C(O)OC(CO)C(O)C3O)cc2)([C]#[N+]CCc2ccc(C(=O)NC3C(O)OC(CO)C(O)C3O)cc2)([C]#[N+]CCc2ccc(C(=O)NC3C(O)OC(CO)C(O)C3O)cc2)([C]#[N+]CCc2ccc(C(=O)NC3C(O)OC(CO)C(O)C3O)cc2)[C]#[N+]CCc2ccc(C(=O)NC3C(O)OC(CO)C(O)C3O)cc2)cc1 (centres unmarked) [^99mTc-4-CNPeDG],2.42 ± 0.16,1.10 ± 0.07,1.15 ± 0.04,7.32 ± 0.90,0.95 ± 0.03,2.80 ± 0.13,0.68 ± 0.05,1.38 ± 0.20,0.70 ± 0.02,0.02 ± 0.00,2.80 ± 0.04,1.16 ± 0.09,0.10 ± 0.04,2.98 ± 0.74,0.38 ± 0.08,0.23 ± 0.03,0.10 ± 0.02,0.95 ± 0.21,10.17 ± 1.95,9.69 ± 1.81,"Log P [1]: -3.593 ± 0.012; Tumor/muscle ratio ([2]; 30 min, n=5, mean ± SD): 4.16 ± 0.35; Bone ([2]; 120 min, mean ± SD): 0.18 ± 0.03 % ID/g; Heart ([2]; 120 min, mean ± SD): 0.15 ± 0.02 % ID/g; Small intestine ([2]; 120 min, mean ± SD): 0.31 ± 0.07 % ID/g; Spleen ([2]; 120 min, mean ± SD): 0.17 ± 0.03 % ID/g; Thyroid ([2]; 120 min, mean ± SD): 0.003 ± 0.001 %ID/g; Tumor/blood ratio [2, 3]: 3.29 ± 0.12; Tumor/muscle ratio [2, 3]: 5.21 ± 0.50; target/non-target ratio compared with 99mTc-CNPEDG ([2]; in words): better target/non-target ratio; tumor uptake compared with 99mTc-CNPEDG ([2]; in words): lower tumor uptake; Tumor/lung ratio ([2]; mean ± SD): 1.81 ± 0.30"
O=C(NC1C(O)OC(CO)C(O)C1O)c1cccc([N+]#[C][99Tc+]([C]#[N+]c2cccc(C(=O)NC3C(O)OC(CO)C(O)C3O)c2)([C]#[N+]c2cccc(C(=O)NC3C(O)OC(CO)C(O)C3O)c2)([C]#[N+]c2cccc(C(=O)NC3C(O)OC(CO)C(O)C3O)c2)([C]#[N+]c2cccc(C(=O)NC3C(O)OC(CO)C(O)C3O)c2)[C]#[N+]c2cccc(C(=O)NC3C(O)OC(CO)C(O)C3O)c2)c1 (centres unmarked) [^99mTc-3-CNBzDG],2.53 ± 0.83,1.44 ± 0.29,1.44 ± 0.21,6.69 ± 0.68,1.38 ± 0.24,4.00 ± 0.52,0.77 ± 0.06,2.05 ± 0.29,1.06 ± 0.27,0.03 ± 0.01,2.51 ± 0.52,1.04 ± 0.22,0.27 ± 0.02,4.49 ± 0.56,0.89 ± 0.09,0.76 ± 0.20,0.24 ± 0.05,1.47 ± 0.22,5.39 ± 0.79,6.16 ± 0.71,"logP [1]: -3.74 ± 0.038; Tumor/muscle ratio ([2]; 30 min, n=5, mean ± SD): 3.28 ± 0.66; Bone ([2]; 120 min, mean ± SD): 0.42 ± 0.03 % ID/g; Heart ([2]; 120 min, mean ± SD): 0.54 ± 0.07 % ID/g; Small intestine ([2]; 120 min, mean ± SD): 0.70 ± 0.10 % ID/g; Spleen ([2]; 120 min, mean ± SD): 0.43 ± 0.17 % ID/g; Thyroid ([2]; 120 min, mean ± SD): 0.01 ± 0.00 %ID/g; target/non-target ratio compared with 99mTc-CNPEDG ([2]; in words): better target/non-target ratio; tumor uptake compared with 99mTc-CNPEDG ([2]; in words): lower tumor uptake; tumor/muscle, tumor/blood and tumor/lung ratio compared with p-substituted 99mTc complexes ([2]; in words): higher; Tumor/lung ratio ([2]; mean ± SD): 2.01 ± 0.35"
"O=C(NC1C(O)OC(CO)C(O)C1O)c1ccc(C[N+]#[C][99Tc+]([C]#[N+]Cc2ccc(C(=O)NC3C(O)OC(CO)C(O)C3O)cc2)([C]#[N+]Cc2ccc(C(=O)NC3C(O)OC(CO)C(O)C3O)cc2)([C]#[N+]Cc2ccc(C(=O)NC3C(O)OC(CO)C(O)C3O)cc2)([C]#[N+]Cc2ccc(C(=O)NC3C(O)OC(CO)C(O)C3O)cc2)[C]#[N+]Cc2ccc(C(=O)NC3C(O)OC(CO)C(O)C3O)cc2)cc1 (centres unmarked) [^99mTc-CNPEDG, reference compound]",–,–,–,–,–,–,–,–,–,–,–,–,1.29 ± 0.16,7.56 ± 0.94,2.52 ± 0.26,2.39 ± 0.31,0.82 ± 0.08,4.25 ± 0.56,3.29 ± 0.12,5.21 ± 0.50,–

# From patent US20230263914A1, “BENZENE RING-CONTAINING GLUCOSE DERIVATIVE AND USE THEREOF” (priority 2020, published 2023)
